Patent US7268160B2, “Remedies” (Takara Bio, Inc., priority 2000, dated 2007)

What was measured:
[1] = test system: NGF production in the L-M cells; assay: Enhancement for NGF production by flavonols, Example 16 (24 hours culture); assay type: cell-based, rat; conditions: for Enhancement of NGF production (in words): L-M cells; for Enhancement Ratio (%): negative control (distilled water) = 100%
Protocol: L-M cells (ATCC CCL-1.2) from […] fibroblasts were suspended in an M199 medium (manufactured by ICN) containing 0.5% bactopeptone (manufactured by Gibco BRL) so as to have a concentration of 1.5×10^5 cells/ml. The suspension was put in a 96-well plate in an amount of 0.1 ml each well, and the cells were aseptically cultured. After culturing the cells for 3 days, the medium was removed therefrom, and exchanged with an M199 medium containing 0.5% bovine serum albumin (manufactured by Sigma).
As the negative control, that with addition of distilled water was used. After the termination of the culture, the NGF concentration in the culture medium was assayed by an enzyme immunoassay method (NGF Emax Immuno Assay System, manufactured by Promega). The degree of the enhancement for NGF production at each added amount was expressed in percentage as the enhancement ratio (%) on the basis of the NGF concentration in the cell culture medium at each added amount when the NGF concentration in the cell culture medium of the negative control was defined as 100%. The experiment was carried out twice, and an average value was taken.
The enhancing activity for NGF production of myricitrin (manufactured by Funakoshi) was assayed in the same manner as in item (1) of Example 16. Myricitrin was added so as to have a final concentration of 0, 31.3, 62.5, 125 or 250 μM.
The enhancing activity for NGF production of quercitrin (manufactured by Sigma) was assayed in the same manner as in item (1) of Example 16. Quercitrin was added so as to have a final concentration of 0, 31.3, 62.5, 125 or 250 μM.

[2] = test system: NGF production in the L-M cells; assay: Enhancing activity for NGF production, Reference Example 1 method (24 hours culture, NGF enzyme immunoassay of culture medium); assay type: cell-based, murine; conditions: for Enhancement of NGF production (in words): L-M cells; for Enhancement Ratio (%): negative control = 100%
Protocol: (§1) L-M cells (ATCC CCL-1.2) from murine fibroblasts were suspended in an M199 medium (manufactured by ICN) containing 0.5% bactopeptone (manufactured by Gibco BRL) so as to have a concentration of 1.5×10^5 cells/mi. The suspension was put in a 96-well plate in an amount of 0.1 ml each well, and the cells were aseptically cultured. After culturing the cells for 3 days, the medium was removed therefrom, and exchanged with an M199 medium containing 0.5% bovine serum albumin (manufactured by Sigma). Caffeic acid (manufactured by Sigma, dimethyl suif oxide (DMSO) solution), a substance known to have enhancing activity for NGF production, was added to each well containing the cells, so as to have a final concentration of 0, 50, 100 or 200 μM, and the cells were cultured for 24 hours. One having a caffeic acid concentration of 0 μM was used as a negative control. In addition, the final concentration of DM50 in each well was adjusted to 0.1%. After the termination of the culture, the NGF concentration in the culture medium was determined by an enzyme immunoassay method (NGF Emax Immuno Assay System, manufactured by Promega). The degree of the enhancement for NGF production of caffeic acid at each added amount was expressed in percentage as the enhancement ratio (%) on the basis of the NGF concentration in the cell culture medium at each added amount, when the NGF concentration in the cell culture medium of the negative control was defined as 100%. The experiment was carried out twice, and an average value was taken. It was shown that the enhancing activity for NGF production of caffeic acid could be assayed by this method.
The enhancing activity for NGF production of the compound (13) (manufactured by Funakoshi) was assayed in the same manner as in Reference Example 1. The compound (13) was added so as to have a final concentration of 0, 0.5, 1, 2, 5, 10, 20 or 50 μM.
The enhancing activity for NGF production of a compound (14) (manufactured by Sigma) was assayed in the same manner as in Reference Example 1. The compound (14) was added so as to have a final concentration of 0, 50, 100 or 200 μM.
The enhancing activity for NGF production of a compound (15) (manufactured by Sigma) was assayed in the same manner as in Reference Example 1. The compound (15) was added so as to have a final concentration of 0, 12.5, 25 or 50 μM.
The enhancing activity for NGF production of a compound (16) (manufactured by Wako Pure Chemical Industries) was assayed in the same manner as in Reference Example 1. The compound (16) was added so as to have a final concentration of 0, 25, 50 or 100 μM.

[3] = test system: NGF production in the L-M cells; assay: Enhancing activity for NGF production, Example 13 method (20 hours culture after addition); assay type: cell-based, murine; conditions: Mus musculus, negative control = 100%, read-out: Enhancement Ratio (%)
Protocol: as §1
The enhancing activity for NGF production of each of the compounds (5) to (12), (17) to (22), (24) and (25) prepared in Preparation Examples 2 to 9 and Examples 1 to 8, and the compound (23) (rosemarinic acid; manufactured by Funakoshi), or caffeic acid (CA), 4-methylcatechol (4MC) and epinephrine (EN), substances conventionally known to enhance NGF production was assayed in the same manner as in Reference Example 1. In addition, the time period for cell culture after the addition of the compound was 20 hours. A negative control was set for every test of each compound. Each experiment was carried out twice, and an average value was taken.
(1) L-M cells (ATCC CCL-1.2) from murine fibroblasts were suspended in an M199 medium (manufactured by ICN) containing 0.5% bactopeptone (manufactured by Gibco) so as to have a concentration of 1.5×10^5 cells/ml. The suspension was put in a 96-well plate in an amount of 0.1 ml each well, and the cells were aseptically cultured. After culturing the cells for 3 days, the medium was removed therefrom, and exchanged with an M199 medium containing 0.5% bovine serum albumin (manufactured by Sigma). Thereto was added an yellow pigment (powder Sun Yellow No. 2, manufactured by San-Ei Gen F.F.I.) obtained by extraction from flower of Carthamus tinctorius LINNE) as the sample so as to have a final concentration of 0, 1.25, 2.5 or 5 mg/ml, and the cells were cultured for 20 hours. After the termination of the culture, the NGF concentration in the culture medium was assayed by an enzyme immunoassay method (NGF Emax Immuno Assay System, manufactured by Promega). The degree of the enhancement for NGF production was expressed in the percentage as an enhancement ratio (%), when the NGF concentration in the cell culture medium with no addition of the sample as the negative control was defined as 100%. The experiment was carried out twice, and an average value was taken. […]
The enhancing activity for NGF production of the purified safflomin A thus obtained was determined in the same manner as in Example 13. The purified safflomin A was added so as to have a fmal concentration of 0 or 2.5 mg/ml. […]

O=c1c(O)c(-c2cc(O)c(O)c(O)c2)oc2cc(O)cc(O)c12 [Myricetin, myricetin]
Enhancement of NGF production (in words) [1]: enhanced NGF production in the L-M cells in a concentration-dependent manner

C[C@@H]1O[C@@H](Oc2c(-c3ccc(O)c(O)c3)oc3cc(O)cc(O)c3c2=O)[C@H](O)[C@H](O)[C@H]1O [Quercitrin, quercitrin]
Enhancement of NGF production (in words) [1]: enhanced NGF production in the L-M cells in a concentration-dependent manner | Enhancement Ratio (%) ([1]; added amount 31.3 μM): 122% | Enhancement Ratio (%) ([1]; added amount 62.5 μM): 140% | Enhancement Ratio (%) ([1]; added amount 125 μM): 193% | Enhancement Ratio (%) ([1]; added amount 250 μM): 207%

O=C(O)/C=C/c1ccc(O)c(O)c1 [CA, caffeic acid, reference compound]
Enhancement of NGF production (in words) [2]: enhanced NGF production in a concentration-dependent manner | Enhancement Ratio (%) ([2]; added amount 50 μM): 89.7% | Enhancement Ratio (%) ([2]; added amount 100 μM): 150% | Enhancement Ratio (%) ([2]; added amount 200 μM): 349% | activity at 50 µM ([3]; added amount 50 μM): 165% | activity at 100 µM ([3]; added amount 100 μM): 170% | activity at 200 µM ([3]; added amount 200 μM): 200%

C[C@H]1O[C@@H](Oc2c(-c3cc(O)c(O)c(O)c3)oc3cc(O)cc(O)c3c2=O)[C@@H](O)[C@@H](O)[C@@H]1O [Myricitrin, myricitrin]
Enhancement of NGF production (in words) [1]: enhanced NGF production in the L-M cells in a concentration-dependent manner | Enhancement Ratio (%) ([1]; added amount 31.3 μM): 105% | Enhancement Ratio (%) ([1]; added amount 62.5 μM): 159% | Enhancement Ratio (%) ([1]; added amount 125 μM): 294% | Enhancement Ratio (%) ([1]; added amount 250 μM): 304%

O=c1c(O)c(-c2ccc(O)c(O)c2)oc2cc(O)cc(O)c12 [Quercetin, quercetin]
Enhancement of NGF production (in words) [1]: enhanced NGF production in the L-M cells in a concentration-dependent manner | Enhancement Ratio (%) ([1]; added amount 31.3 μM): 122% | Enhancement Ratio (%) ([1]; added amount 62.5 μM): 108% | Enhancement Ratio (%) ([1]; added amount 250 μM): 219%

COc1cc(/C=C/C(=O)CC(=O)/C=C/c2ccc(O)c(OC)c2)ccc1O [Compound (16), Curcumin]
Enhancement of NGF production (in words) [2]: enhanced NGF production in the L-M cells in a concentration-dependent manner | Enhancement Ratio (%) ([2]; added amount 25 μM): 114% | Enhancement Ratio (%) ([2]; added amount 50 μM): 116% | Enhancement Ratio (%) ([2]; added amount 100 μM): 261%
